Data: PubChem BioAssay AID328 (DTP/NCI, 2004)
“And” between values parts separate entries of the source, which are not always exact repeats. Equal entries are not always repeated. Toxic doses and inconclusive results are not listed.

System: BDF1 mice, P388 leukemia ip, median survival T/C
Assay: NCI In Vivo Anticancer Drug Screen. Data for tumor model P388 Leukemia (intraperitoneal) in B6D2F1 (BDF1) mice
Conditions: endpoint: median survival time, higher = longer survival
Method in brief: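 Survival ratio, drug arm over vehicle arm, in mice with a transplanted tumour.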

[1] = dose: 25.0 mg/kg/injection, schedule: Q01DX009 (ip), vehicle: Klucel (hydroxypropylcellulose) (HPC)
[2] = dose: 50.0 mg/kg/injection, schedule: Q01DX009 (ip), vehicle: Klucel (hydroxypropylcellulose) (HPC)
[3] = dose: 100.0 mg/kg/injection, schedule: Q01DX009 (ip), vehicle: Klucel (hydroxypropylcellulose) (HPC)
[4] = dose: 100.0 mg/kg/injection, schedule: Q04DX003 (ip), vehicle: Klucel (hydroxypropylcellulose) (HPC)
[5] = dose: 200.0 mg/kg/injection, schedule: Q04DX003 (ip), vehicle: Klucel (hydroxypropylcellulose) (HPC)
[6] = dose: 400.0 mg/kg/injection, schedule: Q04DX003 (ip), vehicle: Klucel (hydroxypropylcellulose) (HPC)
[7] = dose: 100.0 mg/kg/injection, schedule: Q04DX003 (ip), vehicle: saline with Tween-80
[8] = dose: 200.0 mg/kg/injection, schedule: Q04DX003 (ip), vehicle: saline with Tween-80
[9] = dose: 400.0 mg/kg/injection, schedule: Q04DX003 (ip), vehicle: saline with Tween-80
[10] = dose: 100.0 mg/kg/injection, schedule: Q01DX009 (ip), vehicle: saline with Tween-80
[11] = dose: 200.0 mg/kg/injection, schedule: Q01DX009 (ip), vehicle: saline with Tween-80
[12] = dose: 25.0 mg/kg/injection, schedule: Q01DX009 (ip), vehicle: saline with Tween-80
[13] = dose: 50.0 mg/kg/injection, schedule: Q01DX009 (ip), vehicle: saline with Tween-80
[14] = dose: 50.0 mg/kg/injection, schedule: Q04DX003 (ip), vehicle: saline with Tween-80
[15] = dose: 6.25 mg/kg/injection, schedule: Q01DX009 (ip), vehicle: Klucel (hydroxypropylcellulose) (HPC)
[16] = dose: 12.5 mg/kg/injection, schedule: Q01DX009 (ip), vehicle: Klucel (hydroxypropylcellulose) (HPC)
[17] = dose: 75.0 mg/kg/injection, schedule: Q01DX001 (ip), vehicle: saline sonified
[18] = dose: 150.0 mg/kg/injection, schedule: Q01DX001 (ip), vehicle: saline sonified

With O=C(c1ccccc1)c1ccccc1C(=O)c1ccccc1 the T/C [1] was 95 % of control, the T/C [2] was 100 % of control and the T/C [3] was 89 % of control and 91 % of control. For the same molecule, the T/C [4] was 109 % of control, the T/C [5] was 104 % of control and the T/C [6] was 118 % of control.
Cc1cccc(Cl)c1NC(=O)CCCl was tested, and the T/C [7] was 90 % of control, the T/C [8] was 90 % of control and the T/C [9] was 109 % of control.
For O=c1n(CCCl)c(=O)n(CCCl)c(=O)n1CCCl, the T/C [10] was 110 % of control, the T/C [7] was 100 % of control and the T/C [11] was 110 % of control. For the same molecule, the T/C [8] was 104 % of control, the T/C (dose: 400.0 mg/kg/injection, schedule: Q01DX009 (ip), vehicle: saline with Tween-80) was 100 % of control and the T/C [9] was 104 % of control.
NC(=S)N/N=C/C(=N\NC(N)=S)C(O)C(O)C(O)CO (stereo unspecified) was tested, and the T/C [12] was 100 % of control, the T/C [13] was 95 % of control and the T/C [10] was 100 % of control. For the same molecule, the T/C (dose: 100.0 mg/kg/injection, schedule: Q04DX003 (ip), vehicle: saline sonified) was 100 % of control.
In the case of CCC1(O)CC2CN(CCc3c([nH]c4ccccc34)C(C(=O)OC)(c3cc4c(cc3OC)N(C)C3C(O)(C(=O)NCCSSCCNC(=O)C5(O)C(O)C6(CC)C=CCN7CCC8(c9cc(C%10(C(=O)OC)CC%11CN(CCc%12c%10[nH]c%10ccccc%12%10)CC(O)(CC)C%11)c(OC)cc9N(C)C58)C76)C(O)C5(CC)C=CCN6CCC43C65)C2)C1 (stereo unspecified), the T/C (dose: 250.0 micrograms/kg/injection, schedule: Q04DX003 (ip), vehicle: saline) is reported as 179 % of control, the T/C (dose: 432.0 micrograms/kg/injection, schedule: Q04DX003 (ip), vehicle: saline) is reported as 162 % of control and the T/C (dose: 500.0 micrograms/kg/injection, schedule: Q04DX003 (ip), vehicle: saline) is reported as 185 % of control. For the same molecule, the T/C (dose: 648.0 micrograms/kg/injection, schedule: Q04DX003 (ip), vehicle: saline) was 268 % of control, the T/C (dose: 720.0 micrograms/kg/injection, schedule: Q04DX003 (ip), vehicle: saline) was 164 % of control and the T/C (dose: 1000.0 micrograms/kg/injection, schedule: Q04DX003 (ip), vehicle: saline) was 224 % of control. The T/C (dose: 1080.0 micrograms/kg/injection, schedule: Q04DX003 (ip), vehicle: saline) was 244 % of control, the T/C (dose: 1200.0 micrograms/kg/injection, schedule: Q04DX003 (ip), vehicle: saline) was 171 % of control and the T/C (dose: 1800.0 micrograms/kg/injection, schedule: Q04DX003 (ip), vehicle: saline) was 155 % of control. The T/C (dose: 2000.0 micrograms/kg/injection, schedule: Q04DX003 (ip), vehicle: saline) was 221 % of control.
In the case of O=C1C(Cl)=C(Cl)C(=O)C(/C=C/N2CCOCC2)=C1Cl, the T/C (dose: 6.25 mg/kg/injection, schedule: Q01DX001 (ip), vehicle: saline with Tween-80) is reported as 109 % of control, the T/C (dose: 12.5 mg/kg/injection, schedule: Q01DX001 (ip), vehicle: saline with Tween-80) is reported as 117 % of control and the T/C (dose: 25.0 mg/kg/injection, schedule: Q01DX001 (ip), vehicle: saline with Tween-80) is reported as 104 % of control. For the same molecule, the T/C (dose: 50.0 mg/kg/injection, schedule: Q01DX001 (ip), vehicle: saline with Tween-80) was 113 % of control.
For CC(=O)O[C@H]1CC[C@H]2[C@@H]3CCC4=CC(=O)CC[C@]4(C)[C@H]3[C@H](OC(C)=O)C[C@]12C, the T/C [7] was 100 % of control, the T/C [8] was 95 % of control and the T/C [9] was 109 % of control.
O=[N+]([O-])c1cccc2ccc(N/N=C/c3ccccc3O)nc12 was tested, and the T/C (dose: 10.0 mg/kg/injection, schedule: Q01DX009 (ip), vehicle: Klucel (hydroxypropylcellulose) (HPC)) was 96 % of control, the T/C (dose: 20.0 mg/kg/injection, schedule: Q01DX009 (ip), vehicle: Klucel (hydroxypropylcellulose) (HPC)) was 122 % of control and the T/C (dose: 40.0 mg/kg/injection, schedule: Q01DX009 (ip), vehicle: Klucel (hydroxypropylcellulose) (HPC)) was 111 % of control.
In the case of COCC(N)=O, the T/C (dose: 100.0 mg/kg/injection, schedule: Q01DX009 (ip), vehicle: saline) is reported as 106 % of control, the T/C (dose: 200.0 mg/kg/injection, schedule: Q01DX009 (ip), vehicle: saline) is reported as 97 % of control and the T/C (dose: 400.0 mg/kg/injection, schedule: Q01DX009 (ip), vehicle: saline) is reported as 113 % of control.
CCCN(CCC)CCCC#N was tested, and the T/C [14] was 100 % of control, the T/C [7] was 100 % of control and the T/C [8] was 100 % of control.
With c1ccc2sc(SSN3CC4CCC(CC4)C3)nc2c1 the T/C [13] was 102 % of control and 122 % of control.
CC(C)OC(CCCl)c1ccccc1 (stereo unspecified) was tested, and the T/C (dose: 75.0 mg/kg/injection, schedule: Q01DX009 (ip), vehicle: Klucel (hydroxypropylcellulose) (HPC)) was 95 % of control, the T/C [4] was 100 % of control and the T/C (dose: 150.0 mg/kg/injection, schedule: Q01DX009 (ip), vehicle: Klucel (hydroxypropylcellulose) (HPC)) was 109 % of control. The T/C [5] was 96 % of control, the T/C (dose: 300.0 mg/kg/injection, schedule: Q01DX009 (ip), vehicle: Klucel (hydroxypropylcellulose) (HPC)) was 109 % of control and the T/C [6] was 100 % of control.
In the case of COc1c2c(c(OC)c3ccccc13)C(=O)c1ccccc1C2=O, the T/C (dose: 25.0 mg/kg/injection, schedule: Q01DX005 (ip), vehicle: saline) is reported as 115 % of control, the T/C (dose: 50.0 mg/kg/injection, schedule: Q01DX005 (ip), vehicle: saline) is reported as 87 % of control and the T/C (dose: 100.0 mg/kg/injection, schedule: Q01DX005 (ip), vehicle: saline) is reported as 95 % of control. For the same molecule, the T/C (dose: 200.0 mg/kg/injection, schedule: Q01DX005 (ip), vehicle: saline) was 93 % of control.
C/C=C/C[n+]1cccc2ccccc21 was tested, and the T/C [15] was 86 % of control, the T/C (dose: 6.25 mg/kg/injection, schedule: Q04DX003 (ip), vehicle: saline) was 104 % of control and the T/C [16] was 90 % of control. The T/C (dose: 12.5 mg/kg/injection, schedule: Q04DX003 (ip), vehicle: saline) was 104 % of control, the T/C [1] was 86 % of control and the T/C (dose: 25.0 mg/kg/injection, schedule: Q04DX003 (ip), vehicle: saline) was 109 % of control.
In the case of CCN1CCCC(Nc2nc(Nc3cc(Cl)cc(Cl)c3)nc3cc(Cl)ccc23)C1 (stereo unspecified), the T/C (dose: 37.5 mg/kg/injection, schedule: Q01DX001 (ip), vehicle: saline sonified) is reported as 120 % of control, the T/C [17] is reported as 115 % of control and the T/C [18] is reported as 120 % of control.
CC(C)(C)OC(=O)C(C=O)N1C(=O)c2ccccc2C1=O (stereo unspecified) was tested, and the T/C (dose: 100.0 mg/kg/injection, schedule: Q01DX001 (ip), vehicle: saline with Tween-80) was 95 % of control, the T/C (dose: 200.0 mg/kg/injection, schedule: Q01DX001 (ip), vehicle: saline with Tween-80) was 95 % of control and the T/C (dose: 400.0 mg/kg/injection, schedule: Q01DX001 (ip), vehicle: saline with Tween-80) was 100 % of control.
In the case of Cc1c(Cl)cc(Cl)c(N)c1Cl, the T/C [8] is reported as 100 % of control and the T/C [9] is reported as 100 % of control.
With O=C1c2ccccc2C(=O)N1CC(O)COc1ccccc1 (stereo unspecified) the T/C [17] was 104 % of control, the T/C [18] was 122 % of control and the T/C (dose: 300.0 mg/kg/injection, schedule: Q01DX001 (ip), vehicle: saline sonified) was 104 % of control.
For Cc1ccc(C(=O)NCCCOc2ccc(N)cc2Cl)cc1S(=O)(=O)F, the T/C [12] was 102 % of control, the T/C [13] was 111 % of control and the T/C [14] was 100 % of control. The T/C [10] was 93 % of control, the T/C [7] was 92 % of control and the T/C [11] was 107 % of control. For the same molecule, the T/C [8] was 92 % of control and the T/C [9] was 90 % of control.
With COc1cc([N+](=O)[O-])c(C)cc1NC(=O)c1ccc(OC)c(OC)c1 the T/C (dose: 0.78 mg/kg/injection, schedule: Q01DX009 (ip), vehicle: saline) was 100 % of control, the T/C (dose: 1.56 mg/kg/injection, schedule: Q01DX009 (ip), vehicle: saline) was 115 % of control and the T/C (dose: 3.12 mg/kg/injection, schedule: Q01DX009 (ip), vehicle: saline) was 88 % of control. The T/C (dose: 6.25 mg/kg/injection, schedule: Q01DX009 (ip), vehicle: saline) was 86 % of control.
c1ccc(CC2(Cc3ccccc3)SCCS2)cc1 was tested, and the T/C [3] was 105 % of control, the T/C [4] was 95 % of control and the T/C (dose: 200.0 mg/kg/injection, schedule: Q01DX009 (ip), vehicle: Klucel (hydroxypropylcellulose) (HPC)) was 105 % of control. The T/C [5] was 104 % of control, the T/C (dose: 400.0 mg/kg/injection, schedule: Q01DX009 (ip), vehicle: Klucel (hydroxypropylcellulose) (HPC)) was 115 % of control and the T/C [6] was 104 % of control.
In the case of CCOC(=O)C1C2OC(=O)C(C(=O)C2CN(CCCl)CCCl)C1C1CC=C(CC2=CCC(C3C4C(=O)OC(C(CN(CCCl)CCCl)C4=O)C3C(=O)OCC)CC2)CC1 (stereo unspecified), the T/C [15] is reported as 169 % of control, the T/C [16] is reported as 165 % of control (2×) and 178 % of control and the T/C [1] is reported as 176 % of control and 184 % of control and 189 % of control. The T/C [2] was 184 % of control and 208 % of control and 215 % of control and the T/C [3] was 265 % of control and 291 % of control and 109 % of control.
